# From patent US7432056B2, “Biallelic markers derived from genomic regions carrying genes involved in arachidonic acid metabolism” (Serono Genetics Institute S.A., priority 1999, dated 2008)
# Assay: Hepatotoxicity monitored by serum alanine aminotransferase (ALT) level in a clinical study of zileuton
# Format: in vivo, human
# Excerpt: In another preferred embodiment, the trait considered was a side effect upon drug treatment; the study involved two populations derived from a clinical study of the anti-asthmatic drug zileuton. The case population was composed of asthmatic individuals treated with Zileuton showing zileuton-associated hepatotoxicity monitored by the serum level of alanine aminotransferase (ALT) and the control population was composed of asthmatic individuals treated with zileuton and having no increased serum level of ALT. Inclusion criteria and association between the biallelic markers of the present invention and zileuton-associated hepatotoxicity are further described below in IV.E. Association of Biallelic Markers of the Invention with Hepatoxicity to Anti-Asthma Drug Zileuton and in Example 5, Association between Side Effects upon Treatment with the Anti-Asthmatic Drug Zileuton (Zyflo™) and the Biallelic Markers of the 12-lipoxygenase Gene.
# Zileuton (Zyflo™) is an active inhibitor of 5-lipoxygenase, the enzyme that catalyzes the formation of leukotrienes from arachidonic acid, indicated for prophylaxis and chronic treatment of asthma. […] The ALT test (serum level of alanine aminotransferase) was used, which is considered the most sensitive indicator of liver injury.
# The side effect examined in this study was the hepatotoxicity experienced by asthmatic individuals as a result of their treatment with Zileuton as part of a clinical study. […] Hepatotoxicity was monitored by measuring the serum levels of alanine aminotransferase (ALT), which is a sensitive indicator of liver cell damage.
# As mentioned above, an association study is more informative if the case-control populations present extreme phenotypes. Therefore, the asthmatic individuals, which were selected for the side effect positive trait (ALT+), corresponded to 89 individuals that presented at least 3 times the upper limit of normal (ULN) level of ALT. On the other side, the asthmatic individuals that were selected for the side effect negative trait (ALT−) corresponded to 208 individuals that presented less than 1×ULN of ALT. ALT+ and ALT− populations corresponded to 4% and 35% respectively of the total asthmatic individuals that participated in this study.
smiles,measurement,setting,value
CC(c1cc2ccccc2s1)N(O)C(N)=O (stereo not shown) [Zileuton],asthmatic individuals that did not experience Zileuton-associated ALT increase compared to ALT levels prior to zileuton intake,"asthmatic individuals treated with zileuton in a clinical study, serum ALT",More than 90%
same,ALT+ population (at least 3 times the upper limit of normal level of ALT) as share of total asthmatic individuals in the study,"asthmatic individuals treated with zileuton, 89 individuals",4%
same,ALT- population (less than 1xULN of ALT) as share of total asthmatic individuals in the study,"asthmatic individuals treated with zileuton, 208 individuals",35%
same,liver function abnormalities in zileuton-treated patients,"elevations of liver function tests during treatment, ALT test",A minority of zileuton-treated patients develop liver function abnormalities
